Assay results published in patent US20080039485A1, “LOW-DOSE-LONG-TERM PHARMACEUTICAL COMPOSITION COMPRISING CAMPTOTHECIN DERIVATIVES FOR THE TREATMENT OF CANCERS” (TARGETGEN BIOTECHNOLOGY CO., LTD., priority 2006, published 2008).

What was measured:
Colo-205 cells [1] = test: DNA fragmentation assay; type: cell-based, human; conditions: various concentrations, 48 hrs, 1.5% agarose gel
Excerpt: Because apoptosis always takes place as a consequence of a cell cycle block, it is possible that 10-HCPT is able to cause cell death through apoptosis pathway. To verify this possibility, we first performed DNA fragmentation assay since DNA fragmentation is one characteristic of apoptosis.
The DNA of Colo-205 cells treated with various concentrations of 10-HCPT for 48 hrs was extracted and analyzed by 1.5% native agarose gel electrophoresis.

[2] = tested on: cell cycle regulatory proteins in Colo-205 cells; test: Western blotting of cell cycle regulatory proteins; type: cell-based, human; conditions: Colo-205, 3 μM, 48 hr
Excerpt: The progression of the cell cycle is promoted by various CDKs binding with their respective cyclin partners and inhibited by CDK inhibitors such as p21 and p27. In general, CDK2 in association with cyclin E regulates the G1/S transition, and CDK1 in concert with type-A and -B cyclins controls the G2/M transition. Both cell cycle inhibitory proteins p21 and p27 block cell cycle progression at the G1/S as well as the G2/M transitions of cell cycle. […] To confirm this speculation, we analyzed the expressions of several cell cycle regulatory proteins by means of Western blotting assay as described below.
Colo-205 cells were cultured in Dulbecco's modified Eagle Medium (DMEM) supplemented with 10% fetal bovine serum (FBS) at 37° C. in a 5% CO2 atmosphere. Cells were seeded in 6-well plate and incubated with 3 μM of 10-HCPT. After 48 hr, the treated cells were washed twice with phosphate-buffered saline (PBS), flash frozen in liquid nitrogen, and stored at −80° C. The harvested cells were lysed in ice-cold report lysis buffer (Promega). After cleaning the resulted lysates by centrifugation, protein in the clear lysate was quantified by Dc protein assay kit (Bio-Rad). 15 μg of lysate protein were resolved by 10% SDS-PAGE, transferred onto a polyvinylidene difluoride membrane (PVDF membrane, Amersham Biosciences), and immunoblotted with antibodies against followed cellular proteins: DNA topoisomerase I, p53, p27, phosphorylated p27 (Santa Cruz Biotechnology), cyclin E, CDK2 (BD Pharningen), PCNA, p21 (Upstate), and α-tubulin (Sigma). Protein content was visualized with BM Chemiluminescence Blotting Kit (Roche Molecular Biochemicals). The blots were exposed to X-ray film (Fuji) for various times.

[3] = tested on: human colon cancer Colo-205 cells; test: MTT assay of cell growth, Colo-205; type: cell-based; conditions: for concentration at which significant growth inhibition was observed: Colo-205, day 2 and day 3, MTT, vs vehicle controls; for concentration at which complete growth inhibition was observed: Colo-205, days 1-3, MTT
Method: (§1) Two human colon cancer cell lines, Colo-205 (ATCC accession No. CCL-222) and HT-29 (ATCC accession No. HTB-38), were used in this study. Cells were treated with 0.2, 0.76, 1.52, 7.62, 15.24, 22.87, 30.49, 38.11, 45.73 or 53.35 μM 10-HCPT or CPT-11 for 1-3 days, and the relative number of the viable cells was determined by MTT assay as described below.
(§2) Cells were seeded in a 24-well cell culture cluster (Costar, Cambridge, Mass.) at a density of 1×10^6 cells per mL and cultured overnight prior to drug treatment. After 10-HCPT or CPT-11 treatment for 3 days, the medium was discarded and replaced with an equal volume (0.5 mL) of fresh medium containing 0.456 mg/mL 3-[4,5-dimethylthiazol-2-yl]-2,5-diphenyl-tetrazolium bromide (MTT; Sigma Chemical Company) and incubated for 2 hours at 37° C. in the dark. The medium was discarded, and cells were then combined with […] dimethyl sulfoxide (Sigma Chemical Company) to dissolve the formazan produced. Cell viability was determined according to the calorimetric comparison by reading optical density (OD) values from a microplate reader (Spectra Max 250; Spectra Diode Laboratories, CA) at an absorption wavelength of 570 nm.

[4] = tested on: human colon cancer HT-29 cells; test: MTT assay of cell growth, HT-29; type: cell-based; conditions: HT-29, days 1-3, MTT
Method: as §1, §2

[5] = cited from earlier work
Colo-205 cells [6] = test: Cell cycle distribution by propidium iodide staining and flow cytometry; type: cell-based, human; conditions: various concentrations, 48 hrs
Method: We further investigated if the suppression of cell growth induced by 10-HCPT on Colo-205 was due to either cell cycle arrest or cell death. The Colo-205 cells were treated with various concentrations of 10-HCPT for 48 hrs and analyzed by propidium iodide staining and flow cytometry as described below.
After treatment with 10-HCPT, cells were trypsinized and resuspended in 70% ethanol. The cells were incubated on ice for at least 1 hr and resuspended in 1 mL of cell cycle assay buffer (0.38 mM sodium citrate, 0.5 mg/mL RNase A, and 0.01 mg/mL propidium iodide) at a concentration of 5×10^5 cells/mL. Samples were stored in the dark at 4° C. until cell cycle analysis, which was carried out by use of a flow cytometer and ModFit LT 2.0 software (Verity Software, Topsham, Me.).
A FACScan flow cytometer (Becton Dickinson, Bedford, Mass.) equipped with a 488-nm argon laser was used for analysis of cellular function by flow cytometry. Forward and side scatters were used to establish size gates and exclude cellular debris from the analysis. The excitation wavelength was set at 488 nm. The observation wavelength of 530 nm was chosen for green fluorescence and 585 nm for red fluorescence and the intensities of emitted fluorescence were collected on FL1 and FL2 channels, respectively. In each measurement, a minimum of 20,000 cells was analyzed. Data were acquired and analyzed using the Cell Quest software (Becton Dickinson). Relative change in the mean fluorescence intensity was calculated as the ratio between mean fluorescence intensity in the channel of the treated cells and that of the control.

Colo-205 xenografts = test: In vivo antiproliferation, Colo-205 xenografts in BALB/c-nu mice; conditions: for tumor volume at day 24: control 300.5±22.3
Method: We further examined whether 10-HCPT is effective in growth suppression in vivo after tumor formation. Colo-205 cells were transplanted into BALB/c-nu mice, and when the tumors were palpable (3-5 mm), the mice were treated either with vehicle control or 10-HCPT.
The in vivo experiment was carried out with ethical committee approval and met the standards required by the Guiding Principles in the Use of Animals in Toxicology, which were adopted by the Society of Toxicology in 1989. The BALB/c-nu mice were obtained from National Laboratory Animal Center of National Applied Research Laboratories (Taipei, Taiwan) and housed in a laminar flow room under sterilized conditions with the temperature being maintained at 25±2° C. and the light controlled at 12 h light and 12 h dark cycle. The Colo 205 cells were harvested and resuspended in serum free RPMI-1640 medium. Cells were adjusted to 1×10^7 cells/mL, and transplanted subcutaneously on the flank regions of the mice. Each experimental group included six to seven mice bearing tumors.
(§3) 10-HCPT was dissolved in propylene glycol and treatment began when the tumor size reached 3-5 mm. 10-HCPT was administered via p.o. once per two or four days at doses of 1-7.5 mg/kg (volume of injection: 0.1 mL/20 g of body weight), respectively. The control group received propylene glycol vehicle once per two days. Tumor size and body weight were monitored twice a week throughout the experiment. The tumor size was measured using a vernier caliper. Tumor volume (V) was calculated according to the formula: V (mm^3)=0.4AB^2, where A and B are the longest diameter and the shortest diameter, respectively. At the end of experiment, all mice were sacrificed by CO2 gas. Tumors, livers, kidneys, and lungs were collected, fixed, embedded and stained with hematoxylin and eosin for pathological analysis.

histone H1 and H3 = conditions: murine hepatoma cells; cited from earlier work
[7] = tested on: caspases (IETD-pNA and LEHD-pNA substrates); test: IETD-pNA and LEHD-pNA cleavage in cell lysates; type: cell-based, human; conditions: Colo-205 cells
Colo-205 cells [8] = test: Viable cell number by trypan blue exclusion assay; type: cell-based, human; conditions: 5, 10, 15 or 20 nM, 24 to 120 hr, vs untreated cells
Method: To investigate the effect of 10-HCPT on the growth of Colo-205 cell line, the cells were treated with a series of dosages of 10-HCPT and harvested at different time points. The cell numbers were determined by trypan blue exclusion assay as described below.
Colo-205 cells (5×10^5) were seeded in 25T flasks overnight and then treated without (control) and with 5, 10, 15, or 20 nM of 10-HCPT, respectively. After treatment for 24 to 120 hr, cells were harvested by trypsin-EDTA and then centrifuged at 1500 rpm for 5 min at 4° C. The cell pellet was resuspended in culture medium containing 0.04% trypan blue and the viable cells were enumerated by a hemocytometer.

caspase-3 = test: DEVD-pNA cleavage activity (Caspase-3 Colorimetric Assay Kit); type: cell-based, human; conditions: Colo-205 lysates, 48 hrs treatment, vs drug-free control
Method: In addition, to further determine whether caspases participate in the propagation of apoptosis induced by 10-HCPT in Colo-205 cells, cell lysates from drug-treated cells were analyzed for the cleavage of the p-nitroaniline-tagged peptides N-Acetyl-Asp-Glu-Val-Aps-pNA (DEVD-pNA), which represent preferential substrates for caspase-3. Caspase activation leads to the release of pNA that can be monitored by absorbance measurements at 405 nm using a plate reader. Specifically, DEVD-pNA cleavage activity was measured using Caspase-3 Colorimetric Assay Kit (BioVision) according to the recommended protocols. 3×10^6 of 10-HCPT treated cells were harvested, resuspended in 50 μl of chilled cell lysis buffer and incubated on ice for 10 min before centrifugation (12,000 rpm for 3 min at 4° C.). The supernatant was collected and the total protein concentration of the supernatant was determined by Dc protein assay kit (Bio-Rad). Each assay reaction containing 100 μg of cell lysates, 50 μl of 2× reaction buffer supplemented with 10 mM DTT, and 5 μl of the 4 mM of DEVD-pNA (200 μM final concentration) was carried out at 37° C. for 1 hr. The formation of p-nitroanilide was detected at 405 nm in a microtiter plate reader.

[9] = Toxicity in xenograft-bearing nude mice (body weight, pathology); type: in vivo
Method: as §3

human Hep G2 cells = conditions: cited from earlier work
[10] = well known in the art; cited from earlier work
[11] = previous pharmacokinetic studies

CC[C@@]1(O)C(=O)OCc2c1cc1n(c2=O)Cc2cc3cc(O)ccc3nc2-1 [10-HCPT, 10-hydroxy-camptothecin]
DNA ladders (Colo-205 cells [1]): DNA ladders were detected | CDK2 expression [2]: increasing expression | PCNA protein level [2]: no effect | amount of p27 [2]: decreasing amount | cdc25c expression [2]: enhanced | cyclin B1 expression [2]: enhanced | cyclin E expression [2]: increasing expression | p21 protein level [2]: dramatically increased | concentration at which significant growth inhibition was observed [3]: 0.2 µM | concentration at which complete growth inhibition was observed [3]: 1 µM | concentration at which complete growth inhibition was observed [4]: 0.5 µM | toxicity with i.v. administration ([5]; i.v.): Dose-dependent toxicity was observed | distribution half-life [5, 11]: short | elimination half-life [5, 11]: prolonged | cell populations in G0/G1 phase (Colo-205 cells [6]): decreasing | cell populations in G2/M phase (Colo-205 cells [6]): induced dramatically the increasing | population in sub G0/G1 phase (Colo-205 cells [6]): increasing population | S phase of cell cycle (Colo-205 cells [6]; vs untreated): no significant differences | tumor volume at day 24 (Colo-205 xenografts; 2.5 mg/kg/2 days p.o., P<0.01): 85.9±12.3 mm^3 | tumor volume at day 24 (Colo-205 xenografts; 2.5 mg/kg/4 days p.o.): 273.1±33.7 mm^3 | tumor volume at day 24 (Colo-205 xenografts; 5 mg/kg/2 days p.o., P<0.01): 60.8±15.4 mm^3 | tumor volume at day 24 (Colo-205 xenografts; 5 mg/kg/4 days p.o., p<0.05): 228.9±45.3 mm^3 | tumor volume at day 24 (Colo-205 xenografts; 7.5 mg/kg/2 days p.o., P<0.01): 7.2±2.8 mm^3 | tumor volume at day 24 (Colo-205 xenografts; 7.5 mg/kg/4 days p.o., p<0.05): 182.9±43.9 mm^3 | tumor growth suppression (Colo-205 xenografts; oral, 2.5-7.5 mg/kg/2 days, nude mouse xenografts): obviously observed | effect on phosphorylation of histone H1 and H3 (histone H1 and H3): inhibitory effect | caspase activation with IETD-pNA substrate [7]: only stimulated little caspase activations | caspase activation with LEHD-pNA substrate [7]: only stimulated little caspase activations | effect on cell number increase (Colo-205 cells [8]): suppression of cell number increasing in dose-dependent manner | absorbance with the DEVD-pNA substrate (caspase-3): clearly elevated | average body weight ([9]; 7.5 mg/kg/2 days-treated group, end of study): slightly recovered | acute toxicity ([9]; 1-7.5 mg/kg, p.o., once per two or four days, nude mice): no obvious acute toxicity | body weight ([9]; all treated groups except the 7.5 mg/kg/2 days-treated group): No significant reduction in body weight | tissue damage in liver, lung and kidney ([9]; tissue slices stained with hematoxylin and eosin): no tissue damage was observed | effect on differentiation (human Hep G2 cells): differentiation inducing effect

CC[C@@]1(O)C(=O)OCc2c1cc1n(c2=O)Cc2cc3ccccc3nc2-1 [CPT, Camptothecin]
water-solubility [10]: water-insoluble

CC[C@@]1(O)C(=O)OCc2c1cc1n(c2=O)Cc2cc3c(CN(C)C)c(O)ccc3nc2-1 [topotecan]
water-solubility [10]: better water-solubility than CPT

irinotecan [CPT-11]
concentration at which significant growth inhibition was observed [3]: 22.87 µM | concentration at which complete growth inhibition was observed [3]: 38.11 µM | concentration at which complete growth inhibition was observed [4]: 45.73 µM | water-solubility [10]: better water-solubility than CPT
